In data set [1] the target is T1, Epidermal growth factor receptor (Homo sapiens, UniProt P00533). Briefly: Binding affinity to EGFR (unknown origin) assessed as dissociation constant by fluorescence polarization assay. A general note: Polarisation of emitted light reports the rotation of a fluorescent probe.
Data set [2] in a line: Oral bioavailability in human. In kind it is ADME, organism-based. Conditions: in vivo.
Data set [3] addresses T1, Epidermal growth factor receptor. Briefly: Inhibition of EGFR in human A549 cells assessed as reduction in EGF-induced Akt phosphorylation measured after 4 hrs by Western blot analysis. In kind it is cell-based. In general terms: In western blotting, separated proteins are transferred to a membrane and probed.
For data set [4], the system named is A549. Briefly: Antitumor activity against human A549 cells xenografted in athymic nude Ncr/nu mouse assessed as suppression of tumor growth at 10 mg/kg, ip administered once every 2 days for seven times and measured after 6 day. In kind it is functional, organism-based. On the technique in general: A xenograft is tissue or cells of one species grown in another, often human tumour cells in immunodeficient mice.

The target of data set [5] is T1, Epidermal growth factor receptor. Briefly: Inhibition of […] EGFR phosphorylation in human A549 cells pretreated for 4 hr followed by EGF stimulation by Western blot analysis. The format is cell-based.
The subject of data set [6] is Mus musculus. Briefly: In vivo inhibition of EGFR in athymic nude Ncr/nu mouse xenografted with human A549 cell assessed as reduction in phosphorylated EGFR expression at 50 mg/kg, ip administered every 2 days for 7 times measured after 6 days by immunohistochemical staining based analysis. The following applies: time 6.0 day. The format is functional, organism-based.

A short description of data set [7]: Stability of the compound assessed as pronase (unknown origin)-mediated drug degradation measured after 20 hrs by HPLC analysis. The format is ADME. Conditions: bacteria.
For data set [8], the system named is A549. Kind of data set: Antimigratory activity against human A549 cells assessed as inhibition of cell migration at 25 uM measured after 30 hrs by scratch wound healing assay (reference value: 55.3 %). Also on record: scale not given: the % may be the effect or the level left. The format is functional.
Data set [9] can be described thus: Selectivity ratio of IC50 for HEK293 cells to IC50 for human A549 cells. In kind it is toxicity. The following applies: HEK293 cells versus A549 cells, read-out: Ratio IC50.
Another data set has as its system HEK293. Briefly: Cytotoxicity against HEK293 cells assessed as reduction in cell viability after 48 hrs by CCK8 assay. The format is cell-based. Conditions: Homo sapiens, HEK293, 48 h.
Data set [10] deals with Mus musculus. Kind of data set: In vivo inhibition of EGFR in athymic nude Ncr/nu mouse xenografted with human A549 cell assessed as reduction in phosphorylated ERK expression at 50 mg/kg, ip administered every 2 days for 7 times measured after 6 days by immunohistochemical staining based analysis. The format is functional, organism-based. The following applies: time 6.0 day.

The test system of data set [11] is A549. Briefly: Antiproliferative activity against human serum starved A549 cells assessed as reduction in cell viability at 10 uM after 48 hrs by CCK8 assay relative to control. The format is functional.
In data set [12] the test system is A549. Briefly: Antimigratory activity against human A549 cells assessed as inhibition of cell migration at 25 uM in presence of EGF by scratch wound healing assay (reference value: 133.9 %). Also noted: scale not given: the % may be the effect or the level left. The format is functional.
Data set [13] has as its system A549. Kind of data set: Antitumor activity against human A549 cells xenografted in athymic nude Ncr/nu mouse assessed as suppression of tumor growth at 50 mg/kg, ip administered once every 2 days for seven days. In kind it is functional, organism-based. Conditions: time 7.0 day.
For data set [14], the target named is T1, Epidermal growth factor receptor. Briefly: Inhibition of EGFR in human A549 cells assessed as reduction in EGF-induced ERK phosphorylation measured after 4 hrs by Western blot analysis. The format is cell-based.
The nature of data set [15]: Toxicity in athymic nude Ncr/nu mouse xenografted with human A549 cells assessed as effect on weight gain at 10 to 50 mg/kg, ip. In kind it is organism-based. The following applies: in vivo, 144 h, dose 10-50 mg/kg, time 6 day.
The target of data set [16] is T1, Epidermal growth factor receptor. Briefly: Inhibition of […] EGFR phosphorylation in human A549 cells at 25 uM pretreated for 4 hr followed by EGF stimulation by Western blot analysis relative to control. The format is cell-based.
The subject of data set [17] is A549. Briefly: Antiproliferative activity against human serum starved A549 cells assessed as reduction in cell viability after 48 hrs in presence of EGF by CCK8 assay. The format is functional, cell-based. Conditions: A549, 48 h.

Active and inactive are the calls of the source. The calls are words filed in the database; no cut-off is given here.

T1 sequence (P00533 whole entry): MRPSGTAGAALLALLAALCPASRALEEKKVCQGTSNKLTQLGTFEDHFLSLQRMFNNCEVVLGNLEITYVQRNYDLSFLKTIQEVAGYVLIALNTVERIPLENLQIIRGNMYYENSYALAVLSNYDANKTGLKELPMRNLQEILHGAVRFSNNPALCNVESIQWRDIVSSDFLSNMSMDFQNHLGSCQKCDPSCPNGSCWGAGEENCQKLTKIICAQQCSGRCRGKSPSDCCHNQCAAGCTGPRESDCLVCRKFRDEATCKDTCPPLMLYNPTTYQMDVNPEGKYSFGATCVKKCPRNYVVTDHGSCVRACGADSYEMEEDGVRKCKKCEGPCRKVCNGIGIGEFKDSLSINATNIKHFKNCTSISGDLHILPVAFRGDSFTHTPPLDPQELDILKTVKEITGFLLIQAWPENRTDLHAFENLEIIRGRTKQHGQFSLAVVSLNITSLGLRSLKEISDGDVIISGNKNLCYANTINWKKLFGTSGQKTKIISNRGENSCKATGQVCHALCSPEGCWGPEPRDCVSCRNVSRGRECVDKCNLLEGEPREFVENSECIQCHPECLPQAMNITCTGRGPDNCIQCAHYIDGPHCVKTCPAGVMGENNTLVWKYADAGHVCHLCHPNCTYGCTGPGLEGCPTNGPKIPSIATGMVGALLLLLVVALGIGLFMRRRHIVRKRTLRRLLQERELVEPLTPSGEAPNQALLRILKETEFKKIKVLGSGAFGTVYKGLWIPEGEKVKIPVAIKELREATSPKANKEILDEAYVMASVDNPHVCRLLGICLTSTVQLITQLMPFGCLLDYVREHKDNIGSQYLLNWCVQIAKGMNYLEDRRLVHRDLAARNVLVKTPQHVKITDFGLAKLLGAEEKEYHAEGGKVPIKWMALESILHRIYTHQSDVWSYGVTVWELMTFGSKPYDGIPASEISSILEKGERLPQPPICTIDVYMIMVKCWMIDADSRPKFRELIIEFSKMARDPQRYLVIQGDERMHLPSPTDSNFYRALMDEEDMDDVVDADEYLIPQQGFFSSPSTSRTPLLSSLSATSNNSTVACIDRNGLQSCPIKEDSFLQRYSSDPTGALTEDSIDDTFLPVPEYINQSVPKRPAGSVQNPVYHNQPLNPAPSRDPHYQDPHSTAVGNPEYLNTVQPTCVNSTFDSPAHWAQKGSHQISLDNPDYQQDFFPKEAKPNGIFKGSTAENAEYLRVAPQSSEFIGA

Turning to `CC(C)C[C@H]1CN(C(=O)Cc2ccc3c(c2)OCO3)CC(=O)N[C@@H](Cc2ccccc2)CN(C(=O)CCC2CCCCC2)CC(=O)N[C@@H](Cc2ccccc2)CN(C(=O)Cc2ccc3c(c2)OCO3)CC(=O)N[C@@H](CC(C)C)C(=O)N(CC(N)=O)C(=O)CCSCc2ccc(cc2)C(=O)N1`, the Kd in data set [1] was 0.55 µM.
As to `NC(=O)N1c2ccccc2C=Cc2ccccc21` [CARBAMAZEPINE], the bioavailability in [2] is more than 90%.
`COc1cc(CC(=O)N2CC(=O)N[C@@H](Cc3ccccc3)C(=O)N(CC(N)=O)C(=O)CCSCc3ccc(cc3)C(=O)N[C@@H](CCCCN)CN(C(=O)CCC3CCCCC3)CC(=O)N[C@@H](Cc3ccccc3)CN(C(=O)CCc3ccccc3)CC(=O)N[C@@H](Cc3ccccc3)C2)cc(OC)c1`: the inhibition result in [3] was “Dose-Dependent Effect”; in [14], “Dose-Dependent Effect”; in data set [16], 100%. Besides, the result with A549 [4] was inactive. The Kd in [1] was determined as 0.43 µM. The half-maximal inhibitory concentration (IC50) in [5] was 17.7 µM; in the data set on HEK293, 62.1 µM; in the data set on A549 [17], 8.36 µM. Further, the inhibition result with Mus musculus [6] was “Active”. Further, the Drug degradation entry in [7] was “Stable”. For the same molecule, the Activity in the data set on A549 [8] is listed as 15.2%; in the data set with A549 [11], 100%; in the data set with A549 [12] it was 64.8%; in data set [15] it was “Non-Toxic”. Further, in data set [9], the selectivity ratio came out at 8. Also, the inhibition result in the data set with Mus musculus [10] is “inactive”. In the data set on A549 [13], the result was Active.

Broadly, the Kd is the free concentration of one partner at which half of the binding sites on the other are occupied at equilibrium, for simple one-to-one binding. Broadly, the bioavailability is the share of a dose that reaches the circulation, judged against a reference dose that is usually intravenous. As usually defined, the inhibition is the percentage by which the read-out fell short of the control. By IC50 is commonly meant the concentration at which inhibition is half-maximal.
